Data as given in ChEMBL document CHEMBL4842387, “Discovery of a Series of Hydroxamic Acid-Based Microtubule Destabilizing Agents with Potent Antitumor Activity” (J Med Chem, 2021).

Assay: Metabolic stability in human liver microsomes at 1 uM in presence of NADPH regenerating system measured up to 60 mins by UFLC-MS/MS analysis
Format: ADME, Microsome
Details: 1 h

Stabilty: Unstable
Structure (SMILES): COc1ccc(N(C)c2nc(C)nc3ccccc23)cc1OCC(=O)NO
